Patent publication US20080032961A1, “Therapy employing LXRalpha modolators” (priority 2001, published 2008)

Legend:
Format in all cases: cell-based
3T3-L1 cells = test: Oil Red O staining of lipid droplet accumulation / adipocyte differentiation of 3T3-L1 cells; details: for lipid droplets (Oil Red-O staining): 3T3-L1 cells committed to adipocyte differentiation
Description: (§1) 3T3-L1 cells committed to adipocyte differentiation were treated with either Darglitazone, the LXRα agonist 22-R-hydroxy cholesterol, or both. 22-R-hydroxy cholesterol (22-R) is a naturally occurring agonist for LXRα (Janowski et al. 1996). […] Therefore, treatment of 3T3-L1 pre-adipocytes with either a PPARγ agonist or an LXRα agonist leads to fat accumulation and increased expression of LXRα.
(§2) The 3T3-L1 cell line (ATCC) was maintained in DMEM supplemented with 10% fetal calf serum, 2 mM L-glutamine and penicillin/streptomycin at 37° C. Cells were grown to confluence and exposed to adipogenic reagents for 3 days, followed by culturing for 3 more days in medium containing insulin only as described elsewhere (Lin and Lane, 1992). Insulin was used at a concentration of 1 μg/ml, dexamethasone at 1 μM and isobutylmethylxanthine at 0.5 mM.
Light microscopy and Oil Red O staining were used to monitor the characteristic cell rounding and lipid droplet accumulation in these cells during differentiation. Images were taken using a microscope (Leica DMIL) and a dual-colour charge coupled device camera (Leica MPS 60).

[1] = test system: LXRα mRNA in human adipocytes; test: Northern blot analysis of LXRα mRNA in human adipocytes; details: 1 μM Darglitazone, 5 μM 22-(R)-hydroxy cholesterol or both, 48 hrs, FIG. 3
Description: Human adipocytes were obtained from breast reduction surgery. Pieces of adipose tissue (5-600 mg) were prepared under sterile conditions and used for incubations in plastic tubes essentially as described (Ottosson et al., 1994). PolyA+ RNA was isolated and subjected to Northern blot analysis (FIG. 3).
(§3) Total RNA from differentiated 3T3-L1 adipocytes or adipose tissue were extracted by the Trizol (Life Technologies, Inc.) method as recommended by the manufacturer. Northern blot analysis of RNA was performed as described earlier (Sorensen et al., 1994). 20 μg of total RNA was analyzed for LXRα and ribosomal protein 18S mRNA.

[2] = test system: LXRα mRNA in 3T3-L1 adipocytes; test: Northern blot analysis of LXRα mRNA in 3T3-L1 adipocytes; details: for LXRα mRNA (Northern blot of total RNA): differentiating 3T3-L1 cells, 22-R 5 μM, Darglitazone 1 μM, alone or in combination, 24 hours, FIG. 2
Description: We performed Northern blot analysis on total RNA from 3T3-L1 adipocytes treated with increasing doses of a PPARγ agonist. Adipocytes treated over a 24 hrs period with […] of Darglitazone. 20 μg total RNA was subjected to Northern blotting and probed with a ^32P-labeled LXRα cDNA probe. The signal was obtained by scanning the autoradiogram and normalised for 18S RNA expression. […] These concentrations are in agreement with concentrations required for activation of PPARγ in reporter assays (Lehmann et al. 1995).
as §1, §2, §3

| SMILES | lipid droplets (Oil Red-O staining) (3T3-L1 cells) | expression levels of LXRα mRNA (Northern blot of PolyA+ RNA) [1] | induction of LXRa mRNA ([2]; 3T3-L1 adipocytes, 24 hrs, 0.01, 0.1, and 1 mM, normalised for 18S RNA, FIG. 1) | LXRα mRNA (Northern blot of total RNA) [2] | adipocyte differentiation of 3T3-L1 pre-adipocytes (3T3-L1 cells; 3T3-L1 pre-adipocytes) |
| --- | --- | --- | --- | --- | --- |
| Cc1oc(-c2ccccc2)nc1CCC(=O)c1ccc(CC2SC(=O)NC2=O)cc1 (centres unmarked) [Darglitazone] | gradually larger lipid droplets | increased expression levels | approximately 5 fold | increase |  |
| CC(C)CC[C@@H](O)[C@@H](C)[C@H]1CC[C@H]2[C@@H]3CC=C4C[C@@H](O)CC[C@]4(C)[C@H]3CC[C@]12C [22-R-hydroxy cholesterol] | gradually larger lipid droplets | increased expression levels |  | increase | enhances adipocyte differentiation |
